Consider four compounds from ChEMBL document CHEMBL1156531, “Designer enediynes generate DNA breaks, interstrand cross-links, or both, with concomitant changes in the regulation of DNA damage responses” (2007).

The source made the active and inactive calls. The rule behind the calls is not given here.

In experiment [1] the test system is Bacillus amyloliquefaciens. The experiment can be described thus: Induction of interstrand cross-link in BamH1-linearized pBR322 plasmid DNA assessed as amount of double-stranded DNA remaining after denaturation relative to C-1027.
Experiment [2] is described as follows: Induction of double-strand break in BamH1-linearized pBR322 plasmid DNA assessed as linear DNA under aerobic condition relative to C-1027. Conditions: Bacillus amyloliquefaciens.
The subject of experiment [3] is BSC-1. Kind of experiment: Induction of DNA interstand cross-link in SV40-infected african green monkey BSC1 cells assessed as amount of double-stranded DNA remaining after denaturation after 4 hrs. Conditions: Betapolyomavirus macacae. It counts as cell-based.
In experiment [4] the test system is HCT-116. Kind of experiment: Ratio of IC50 for mock siRNA-treated human HCT116 cells to IC50 for siATR (ataxia telangiectasia mutated and Rad3 related)-treated human HCT116 cells after 3 days. Type of experiment: functional.
Experiment [5] concerns BSC-1. Kind of experiment: Induction of double-strand DNA break in SV40-infected african green monkey BSC1 cells assessed as amount of linear DNA after 4 hrs. It counts as cell-based. Conditions: Betapolyomavirus macacae.
Experiment [6] deals with T1, Serine/threonine-protein kinase Chk1 (Homo sapiens) (UniProt O14757).
T1 sequence (whole entry): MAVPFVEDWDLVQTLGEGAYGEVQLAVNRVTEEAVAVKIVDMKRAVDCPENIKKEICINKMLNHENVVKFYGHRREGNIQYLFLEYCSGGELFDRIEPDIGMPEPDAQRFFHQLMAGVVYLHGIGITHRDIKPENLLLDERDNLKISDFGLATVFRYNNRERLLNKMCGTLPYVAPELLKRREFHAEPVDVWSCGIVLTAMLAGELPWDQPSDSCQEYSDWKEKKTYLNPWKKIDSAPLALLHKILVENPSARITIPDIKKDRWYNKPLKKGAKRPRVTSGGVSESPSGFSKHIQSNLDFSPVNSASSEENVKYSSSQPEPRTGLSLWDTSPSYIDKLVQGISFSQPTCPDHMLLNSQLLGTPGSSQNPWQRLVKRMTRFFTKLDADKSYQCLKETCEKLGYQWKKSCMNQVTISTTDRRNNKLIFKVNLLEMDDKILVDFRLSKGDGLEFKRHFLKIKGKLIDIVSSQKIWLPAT
The experiment can be described thus: Decrease in Chk1-Ser-345 phosphorylation in ataxia telangiectasia mutated and Rad3 related-deficient human HCT116 cells at 3 nM after 1 hr by Western blotting. It counts as cell-based. Conditions: HCT-116.

Experiment [7] relates to HCT-116. The experiment can be described thus: Induction of double-strand DNA break in human HCT116 cells after 4 hrs by comet assay. It counts as cell-based.
The subject of experiment [8] is BSC-1. The experiment can be described thus: Increase in DNA interstand cross-link in SV40-infected african green monkey BSC1 cells assessed as amount of double-stranded DNA remaining after denaturation at 200 nM after 4 hrs. Conditions: Betapolyomavirus macacae. It counts as cell-based.
Experiment [9] has as its system HCT-116. The experiment can be described thus: Induction of DNA interstand cross-link in human HCT116 cells after 4 hrs by comet assay. Type of experiment: cell-based.
In experiment [10] the test system is BSC-1. Kind of experiment: Induction of double-strand DNA break in SV40-infected african green monkey BSC1 cells assessed as amount of linear DNA at 10 uM after 4 hrs. It counts as cell-based. Conditions: Betapolyomavirus macacae.
The test system of experiment [11] is Bacillus amyloliquefaciens. The experiment can be described thus: Induction of interstrand cross-link in BamH1-linearized pBR322 plasmid DNA assessed as amount of double-stranded DNA remaining at 13 nM after 4 hrs under anaerobic cell-free condition.
The subject of experiment [12] is BSC-1. The experiment can be described thus: Induction of DNA interstand cross-link in SV40-infected african green monkey BSC1 cells assessed as amount of double-stranded DNA remaining after denaturation at 40 nM after 4 hrs. Conditions: Betapolyomavirus macacae. It counts as cell-based.
Experiment [13] deals with Bacillus amyloliquefaciens. The experiment can be described thus: Induction of interstrand cross-link in BamH1-linearized pBR322 plasmid DNA assessed as amount of double-stranded DNA remaining at 130 nM after 4 hrs under anaerobic cell-free condition.
Experiment [14] concerns the target T1, Serine/threonine-protein kinase Chk1 (Homo sapiens). Kind of experiment: Decrease in Chk1-Ser-345 phosphorylation in ataxia telangiectasia mutated and Rad3 related-deficient human HCT116 cells at 1 nM after 1 hr by Western blotting. Type of experiment: cell-based. Conditions: HCT-116. On the technique in general: A western blot detects proteins with antibodies after separation by electrophoresis.

In experiment [15] the test system is BSC-1. The experiment can be described thus: Induction of double-strand DNA break in SV40-infected african green monkey BSC1 cells assessed as amount of linear DNA at 8 nM after 4 hrs. It counts as cell-based. Conditions: Betapolyomavirus macacae.

As for `C=C1Oc2cc(OC)cc(C(=O)O[C@H]3COC(=O)C[C@H](N)c4ccc(c(O)c4)O[C@@H]4C#C/C=C/3C#CC3=CC=C[C@@]34O[C@@H]3OC(C)(C)[C@@H](N(C)C)[C@@H](O)[C@H]3O)c2NC1=O`, the Activity in experiment [1] was less than 0.003%; in experiment [2] it was 0.25%; in the experiment on BSC-1 [5], “Dose-dependent effect”. Further, in the experiment on BSC-1 [3], the result was inactive. The “Ratio IC50” value with HCT-116 [4] is recorded as 1.3. For the same compound, in [6], the outcome was Active.
Take `C=C1Oc2cc(O)cc(C(=O)O[C@H]3COC(=O)C[C@H](N)c4cc(O)c(c(Cl)c4)O[C@@H]4C#C/C=C/3C#CC3=CC=C[C@@]34O[C@@H]3OC(C)(C)[C@@H](N(C)C)[C@@H](O)[C@H]3O)c2NC1=O`: the outcome with HCT-116 [7] and in the experiment with BSC-1 [10] was inactive. Besides, the Activity in experiment [1] stood at 1%; in [2], 0.02%. The outcome with BSC-1 [8] and with HCT-116 [9] was Active. Further, the “Ratio IC50” value in the experiment on HCT-116 [4] turned out to be 2.5.
On to `C=C1Oc2cc(OC)cc(C(=O)O[C@H]3COC(=O)C[C@H](N)c4cc(O)c(c(Cl)c4)O[C@@H]4C#C/C=C/3C#CC3=CC=C[C@@]34O[C@@H]3OC(C)(C)[C@@H](N(C)C)[C@@H](O)[C@H]3O)c2NC1=O`, for which the result in the experiment on HCT-116 [7] was inactive. Also, the Activity was 13% in experiment [11]; 1% in experiment [1]; 1% in experiment [2]; more than 30% in [13]; 20% in the experiment with BSC-1 [15]. Besides, the outcome (in the experiment on BSC-1 [8]; in the experiment on HCT-116 [9]; in the experiment with BSC-1 [12]; in experiment [14]) was Active. Besides, in the experiment on HCT-116 [4], the “Ratio IC50” value was 1.1.
Turning to `C=C1Oc2cc(OC)cc(C(=O)O[C@H]3COC(=O)C[C@H](N)c4ccc(c(Cl)c4)O[C@@H]4C#C/C=C/3C#CC3=CC=C[C@@]34O[C@@H]3OC(C)(C)[C@@H](N(C)C)[C@@H](O)[C@H]3O)c2NC1=O`, the Activity in experiment [2] was found to be 0.033%.
